Assay results: BindingDB's records for doi:10.1016/j.bmcl.2006.10.013 (Abbott Laboratories, 2007)

Target: Transcription factor Jun (Homo sapiens, UniProt P05412)
Assay: Inhibition of c-Jun phosphorylation in HepG2 cells

Sequence of Transcription factor Jun (P05412 whole entry): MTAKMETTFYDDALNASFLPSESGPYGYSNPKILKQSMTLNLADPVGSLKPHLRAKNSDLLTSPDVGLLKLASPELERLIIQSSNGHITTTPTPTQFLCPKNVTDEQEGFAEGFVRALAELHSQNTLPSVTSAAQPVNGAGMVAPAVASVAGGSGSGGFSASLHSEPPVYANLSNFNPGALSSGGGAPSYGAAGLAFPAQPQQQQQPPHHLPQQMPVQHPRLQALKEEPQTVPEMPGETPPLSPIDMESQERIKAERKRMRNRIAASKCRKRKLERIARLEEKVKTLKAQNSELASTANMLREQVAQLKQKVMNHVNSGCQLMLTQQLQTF

- EC50: 318 nM
Compound: CCOc1nc(C(=O)NCc2ccc(S(C)(=O)=O)cc2)cc(N)c1C#N [4-amino-5-cyano-6-ethoxy-N-[(4-methanesulfonylphenyl)methyl]pyridine-2-carboxamide]
